Measured values: patent US20130065883A1 (Centro Nacional de Investigaceiones Oncologicas (CNIO), priority 2010, published 2013)
pEC50, pIC50: −log10 of the molar value. Like-named read-outs stand apart in the source and are kept apart here.

Legend:
[1] = Metabolic stability assay; assay type: in vitro ADME; details: percentage metabolic stability in human liver microsomes
Procedure: The metabolic stability assay was performed in Wuxi. 1 μM, 15 min. The kinase selectivity testing was performed in ProQinase GmbH, Germany.

[2] = tested on: panel of 24 kinases; assay: Kinase selectivity testing (percentage inhibition of 24 kinases at 1 μM); assay type: biochemical; details: proquinase; for % inhibiton at 1 uM CK1 Alpha 1: CK1 Alpha 1, 1 uM; for % inhibiton at 1 uM FGFR1: FGFR1, 1 uM; for % inhibiton at 1 uM JAK2: JAK2, 1 uM; for % inhibiton at 1 uM MEK1: MEK1, 1 uM; for % inhibiton at 1 uM RPS5 KA1: RPS5 KA1, 1 uM; for % inhibiton at 1 uM SGK1: SGK1, 1 uM; for % inhibiton at 1 uM AKT2: AKT2, 1 uM; for % inhibiton at 1 uM CHK1: CHK1, 1 uM; for % inhibiton at 1 uM PAK1: PAK1, 1 uM; for % inhibiton at 1 uM PDK1: PDK1, 1 uM; for % inhibiton at 1 uM PLK1: PLK1, 1 uM
[3] = tested on: H1299 cells overexpressing Pim1 (H1299Pim1); assay: BAD S112 phosphorylation inhibition assay (In Cell ELISA); assay type: cell-based; details: Homo sapiens, NCI-H1299, inhibition of Bad-phosphorylation, read-out: Cell assay BAD_P H1299 PIM1
[4] = tested on: tumor cell lines; assay: Combination assay (MTT in vitro cell proliferation, combination index); assay type: cell-based; details: Homo sapiens, NCI-H23, NCIH23, non small cell lung carcinoma; read-out: Pim Inh EC50
[5] = target: T1, PIM-1 (Homo sapiens, UniProt P11309); assay: PIM-1 biochemical assay (ADP Hunter); details: read-out: PIM1 IC50;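 note: recombinant human PIM-1 carrying a C-terminal His tag, kinase activity quantified via ADP formed as the direct enzymatic product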
T1 construct: histidine tag (C); made in house
T1 sequence (P11309 whole entry): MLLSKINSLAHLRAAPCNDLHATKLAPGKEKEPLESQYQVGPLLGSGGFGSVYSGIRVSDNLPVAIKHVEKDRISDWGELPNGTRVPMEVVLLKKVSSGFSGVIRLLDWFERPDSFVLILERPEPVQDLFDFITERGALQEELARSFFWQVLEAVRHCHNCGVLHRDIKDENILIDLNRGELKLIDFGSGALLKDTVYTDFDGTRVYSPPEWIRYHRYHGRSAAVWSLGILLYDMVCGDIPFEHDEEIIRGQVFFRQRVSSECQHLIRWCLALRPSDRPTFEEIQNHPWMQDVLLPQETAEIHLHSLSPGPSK

[6] = target: T2, PIM-2 (Homo sapiens, UniProt Q9P1W9); assay: PIM-2 biochemical assay (ADP Hunter); details: semi-quantitative class; read-out: PIM2 IC50;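 note: recombinant N-terminally His-tagged human enzyme, kinase activity quantified by detection of ADP formed as the direct reaction product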
T2 construct: histidine tag (N); made in house
T2 sequence (Q9P1W9 whole entry): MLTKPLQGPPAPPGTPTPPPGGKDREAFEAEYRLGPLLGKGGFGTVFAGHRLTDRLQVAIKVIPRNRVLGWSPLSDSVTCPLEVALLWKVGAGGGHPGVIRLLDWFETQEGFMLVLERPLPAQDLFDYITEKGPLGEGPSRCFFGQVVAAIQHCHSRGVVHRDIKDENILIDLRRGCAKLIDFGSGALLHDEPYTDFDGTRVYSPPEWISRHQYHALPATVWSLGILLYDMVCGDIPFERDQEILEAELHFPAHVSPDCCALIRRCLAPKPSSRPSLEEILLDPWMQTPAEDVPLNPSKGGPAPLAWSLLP

[7] = target: T3, PIM-3 (Homo sapiens, UniProt Q86V86); assay: PIM-3 biochemical assay (ADP Hunter); details: read-out: PIM3 IC50;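 note: kinase activity read out as the quantity of ADP generated by the enzyme reaction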
T3 construct: purchased Millipore 14-738

[8] = target: T4, FLT3 (Homo sapiens, UniProt P36888); assay: FLT3 biochemical assay (ADP Hunter);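 note: FLT3 enzymatic activity quantified through the ADP produced by the kinase reaction, detected with an ADP Hunter readout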
T4 sequence (P36888 27-993): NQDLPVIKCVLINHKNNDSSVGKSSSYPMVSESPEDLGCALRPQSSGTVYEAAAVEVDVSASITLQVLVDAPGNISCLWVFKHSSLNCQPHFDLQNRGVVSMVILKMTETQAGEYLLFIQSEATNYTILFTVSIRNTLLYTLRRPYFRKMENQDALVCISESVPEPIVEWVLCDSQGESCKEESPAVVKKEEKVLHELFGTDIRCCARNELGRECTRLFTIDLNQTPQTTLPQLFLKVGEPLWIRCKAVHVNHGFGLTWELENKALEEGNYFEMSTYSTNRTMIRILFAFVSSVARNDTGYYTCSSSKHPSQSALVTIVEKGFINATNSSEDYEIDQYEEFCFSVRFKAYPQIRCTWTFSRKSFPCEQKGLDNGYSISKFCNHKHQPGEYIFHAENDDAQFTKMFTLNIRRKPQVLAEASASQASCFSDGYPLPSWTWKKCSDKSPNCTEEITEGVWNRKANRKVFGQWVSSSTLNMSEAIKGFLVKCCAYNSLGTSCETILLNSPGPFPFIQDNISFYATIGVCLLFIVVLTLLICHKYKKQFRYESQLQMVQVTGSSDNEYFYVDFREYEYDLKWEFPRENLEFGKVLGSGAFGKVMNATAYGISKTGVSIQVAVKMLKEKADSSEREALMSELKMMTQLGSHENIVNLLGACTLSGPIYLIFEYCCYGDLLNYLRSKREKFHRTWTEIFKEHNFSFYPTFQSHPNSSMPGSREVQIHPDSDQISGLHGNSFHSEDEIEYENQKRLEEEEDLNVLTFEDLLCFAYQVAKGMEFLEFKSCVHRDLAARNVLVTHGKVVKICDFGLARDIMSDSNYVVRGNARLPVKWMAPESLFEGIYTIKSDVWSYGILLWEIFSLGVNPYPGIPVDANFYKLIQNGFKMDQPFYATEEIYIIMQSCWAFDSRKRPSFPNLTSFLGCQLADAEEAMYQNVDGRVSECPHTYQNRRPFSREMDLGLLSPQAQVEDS

[9] = actual IC50 value in parentheses

Compound | Stability in HLM [1] [%] | % inhibiton at 1 uM B_RAF V600E [2] [%] | % inhibiton at 1 uM CK1 Alpha 1 [2] [%] | % inhibiton at 1 uM DYRK 1A [2] [%] | % inhibiton at 1 uM EGF_R [2] [%] | % inhibiton at 1 uM FAK [2] [%] | % inhibiton at 1 uM FGFR1 [2] [%] | % inhibiton at 1 uM IGF1_R [2] [%] | % inhibiton at 1 uM IKK BETA [2] [%] | % inhibiton at 1 uM INS_R [2] [%] | % inhibiton at 1 uM JAK2 [2] [%] | % inhibiton at 1 uM KIT [2] [%] | % inhibiton at 1 uM MEK1 [2] [%] | % inhibiton at 1 uM MET [2] [%] | % inhibiton at 1 uM PDGFR Alpha [2] [%] | % inhibiton at 1 uM RPS5 KA1 [2] [%] | % inhibiton at 1 uM SGK1 [2] [%] | % inhibiton at 1 uM AKT2 [2] [%] | % inhibiton at 1 uM CDK8 CYCC [2] [%] | % inhibiton at 1 uM CHK1 [2] [%] | other results
OC1CCC(Nc2ccc3nnn(-c4cccc(OC(F)(F)F)c4)c3n2)CC1 (stereo in doubt) [2-47] | 43.6 | 6 | 2 | 3 | 9 | 6 | 0 | 8 | 4 | 7 | 15 | 2 | 0 | 0 | 0 | 0 | 3 | – | – | – | –
FC(F)(F)Oc1cccc(-n2nnc3cc(Cl)c(NCC4CCNCC4)nc32)c1 [2-54] | 93.95 | 7 | 6 | 30 | 18 | 28 | 32 | 26 | 17 | 16 | 15 | 34 | 0 | 19 | 23 | 8 | 7 | – | – | – | pEC50 [3]: 6.22; pEC50 [4]: 5.30
FC(F)(F)Oc1cccc(-n2nnc3ccc(N4CCCC5(CCCN5)CC4)nc32)c1 (stereo not shown) [2-65] | 88.9 | 3 | 0 | 12 | 12 | 31 | 22 | 21 | 0 | 12 | 8 | 63 | 13 | 11 | 57 | 10 | 0 | 0 | 2 | 7 | pIC50 [5, 9]: 8.70; pIC50 ([5]; semi-quantitative class): > 7.00; pIC50 [6]: 6.00 to 7.00; pIC50 [7, 9]: 8.22; pIC50 ([7]; semi-quantitative class): > 7.00; pIC50 [8, 9]: 7.55; pIC50 ([8]; semi-quantitative class): > 7.00; % inhibiton at 1 uM PAK1 [2]: 0%; % inhibiton at 1 uM PDK1 [2]: 0%; % inhibiton at 1 uM SRC [2]: 33%
FC(F)(F)Oc1cccc(-n2nnc3ccc(NC4CC5(CCNCC5)C4)nc32)c1 [2-66] | 91.1 | 15 | 0 | 30 | 18 | 19 | 4 | 16 | 5 | 7 | 3 | 30 | 0 | 3 | 12 | 19 | 2 | 0 | 3 | 13 | % inhibiton at 1 uM PAK1 [2]: 11%; % inhibiton at 1 uM PDK1 [2]: 4%; % inhibiton at 1 uM SRC [2]: 28%
FC(F)(F)Oc1cccc(-n2nnc3ccc(NCC4CC5(CCNCC5)C4)nc32)c1 [2-67] | 92.15 | 11 | 0 | 18 | 13 | 27 | 0 | 25 | 0 | 5 | 0 | 58 | 0 | 2 | 49 | 11 | 7 | 0 | 0 | 11 | % inhibiton at 1 uM PAK1 [2]: 3%; % inhibiton at 1 uM PDK1 [2]: 0%; % inhibiton at 1 uM SRC [2]: 16%
FC(F)(F)c1cccc(-n2nnc3cc(Cl)c(NCC4CCNCC4)nc32)c1 [2-83] | 112.7 | 11 | 3 | 7 | 8 | 16 | 39 | 13 | 0 | 6 | 1 | 26 | 2 | 0 | 14 | 36 | 6 | 0 | 14 | 6 | pIC50 [5, 9]: 7.68; pIC50 ([5]; semi-quantitative class): > 7.00; pIC50 [6]: < 6.00; pIC50 [7, 9]: 8.22; pIC50 ([7]; semi-quantitative class): > 7.00; pIC50 [8, 9]: 7.03; pIC50 ([8]; semi-quantitative class): > 7.00; pEC50 [3]: 6.34; % inhibiton at 1 uM PAK1 [2]: 11%; % inhibiton at 1 uM PDK1 [2]: 3%; % inhibiton at 1 uM PLK1 [2]: 0%; % inhibiton at 1 uM SRC [2]: 24%
O[C@H]1CC[C@@H](Nc2nc3c(cc2Cl)nnn3-c2cccc(OC(F)(F)F)c2)CC1 [2-85] | – | – | – | – | – | – | – | – | – | – | – | – | – | – | – | – | – | – | – | – | pIC50 [5, 9]: 7.13; pIC50 ([5]; semi-quantitative class): > 7.00; pIC50 [6]: 6.00 to 7.00; pIC50 ([7]; semi-quantitative class): 6.00 to 7.00; pIC50 ([8]; semi-quantitative class): 6.00 to 7.00; pEC50 [3]: 6.58
COc1cc(NCC2CCNCC2)nc2c1nnn2-c1cccc(N(C)C)c1 [2-87] | 86.25 | 0 | 5 | 1 | 0 | 6 | 6 | 0 | 0 | 0 | 1 | 10 | 7 | 0 | 0 | 12 | 9 | 4 | 0 | 3 | pEC50 [3]: 7.00; % inhibiton at 1 uM PAK1 [2]: 10%; % inhibiton at 1 uM PDK1 [2]: 9%; % inhibiton at 1 uM PLK1 [2]: 2%; % inhibiton at 1 uM SRC [2]: 0%
